According to patent publication US8173813B2, “Quinolone and tetrahydroquinolone and related compounds having NOS inhibitory activity” (NeurAxon, Inc., priority 2007, dated 2012):

Tests used:
migraine patients [1] = settings: human migraine; open pilot study; cited from earlier work
[2] = tested on: Male, Sprague Dawley rats; assay: Porreca model of allodynia (inflammatory soup onto the dura, hindpaw von Frey); type: in vivo, rat
migraine patients [3] = settings: human migraine; single i.v. administration; cited from earlier work
[4] = tested on: patients with persistent shock; settings: 11 patients with persistent shock; up to 30 days; cited from earlier work
[5] = target: Nitric oxide synthase (neuronal, human recombinant) nNOS (Homo sapiens, UniProt P29475); assay: Human nNOS enzyme assay ([3H]L-arginine to [3H]L-citrulline); type: biochemical
Sequence of Nitric oxide synthase (neuronal, human recombinant) nNOS (P29475 whole entry): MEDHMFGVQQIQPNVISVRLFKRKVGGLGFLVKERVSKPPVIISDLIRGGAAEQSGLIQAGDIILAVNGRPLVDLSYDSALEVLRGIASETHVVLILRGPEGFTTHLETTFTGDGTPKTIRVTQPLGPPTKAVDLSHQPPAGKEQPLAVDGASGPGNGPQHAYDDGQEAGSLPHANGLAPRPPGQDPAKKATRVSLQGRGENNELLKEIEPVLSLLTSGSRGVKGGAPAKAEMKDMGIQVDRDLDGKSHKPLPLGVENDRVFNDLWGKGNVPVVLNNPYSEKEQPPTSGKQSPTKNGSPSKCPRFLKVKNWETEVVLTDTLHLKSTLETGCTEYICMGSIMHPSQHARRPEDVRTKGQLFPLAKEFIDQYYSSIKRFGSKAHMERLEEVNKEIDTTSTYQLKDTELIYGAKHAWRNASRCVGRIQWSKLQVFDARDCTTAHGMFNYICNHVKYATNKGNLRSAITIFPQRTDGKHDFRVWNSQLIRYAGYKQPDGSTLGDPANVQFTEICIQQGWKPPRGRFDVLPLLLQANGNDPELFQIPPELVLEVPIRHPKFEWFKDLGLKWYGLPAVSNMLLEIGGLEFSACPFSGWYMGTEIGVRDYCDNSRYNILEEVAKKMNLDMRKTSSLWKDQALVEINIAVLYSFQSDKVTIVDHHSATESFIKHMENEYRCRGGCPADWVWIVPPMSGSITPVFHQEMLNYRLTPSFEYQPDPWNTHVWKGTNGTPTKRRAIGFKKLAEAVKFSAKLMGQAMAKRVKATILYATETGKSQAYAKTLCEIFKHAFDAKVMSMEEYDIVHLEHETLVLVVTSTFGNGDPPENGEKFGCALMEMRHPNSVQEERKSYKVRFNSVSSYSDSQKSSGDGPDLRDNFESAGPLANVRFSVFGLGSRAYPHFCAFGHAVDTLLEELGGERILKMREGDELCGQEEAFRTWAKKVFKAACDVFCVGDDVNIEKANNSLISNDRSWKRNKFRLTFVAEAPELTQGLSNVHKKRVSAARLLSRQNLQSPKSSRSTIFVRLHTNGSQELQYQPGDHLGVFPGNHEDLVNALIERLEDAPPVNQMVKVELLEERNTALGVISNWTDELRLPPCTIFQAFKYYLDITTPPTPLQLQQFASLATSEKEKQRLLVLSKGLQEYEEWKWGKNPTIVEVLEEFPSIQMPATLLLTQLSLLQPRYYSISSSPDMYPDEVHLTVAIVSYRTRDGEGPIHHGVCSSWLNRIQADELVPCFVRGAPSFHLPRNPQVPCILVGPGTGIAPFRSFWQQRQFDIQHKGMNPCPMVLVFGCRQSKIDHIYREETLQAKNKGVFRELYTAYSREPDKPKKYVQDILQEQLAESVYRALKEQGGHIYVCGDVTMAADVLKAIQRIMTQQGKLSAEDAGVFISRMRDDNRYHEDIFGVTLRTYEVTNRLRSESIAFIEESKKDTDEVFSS

[6] = target: Nitric oxide synthase (endothelial, human recombinant) eNOS (Homo sapiens, UniProt P29474); assay: Human eNOS enzyme assay ([3H]L-arginine to [3H]L-citrulline); type: biochemical; settings: human recombinant eNOS; values without parentheses; read-out: heNOS IC50
Sequence of Nitric oxide synthase (endothelial, human recombinant) eNOS (P29474 2-1203): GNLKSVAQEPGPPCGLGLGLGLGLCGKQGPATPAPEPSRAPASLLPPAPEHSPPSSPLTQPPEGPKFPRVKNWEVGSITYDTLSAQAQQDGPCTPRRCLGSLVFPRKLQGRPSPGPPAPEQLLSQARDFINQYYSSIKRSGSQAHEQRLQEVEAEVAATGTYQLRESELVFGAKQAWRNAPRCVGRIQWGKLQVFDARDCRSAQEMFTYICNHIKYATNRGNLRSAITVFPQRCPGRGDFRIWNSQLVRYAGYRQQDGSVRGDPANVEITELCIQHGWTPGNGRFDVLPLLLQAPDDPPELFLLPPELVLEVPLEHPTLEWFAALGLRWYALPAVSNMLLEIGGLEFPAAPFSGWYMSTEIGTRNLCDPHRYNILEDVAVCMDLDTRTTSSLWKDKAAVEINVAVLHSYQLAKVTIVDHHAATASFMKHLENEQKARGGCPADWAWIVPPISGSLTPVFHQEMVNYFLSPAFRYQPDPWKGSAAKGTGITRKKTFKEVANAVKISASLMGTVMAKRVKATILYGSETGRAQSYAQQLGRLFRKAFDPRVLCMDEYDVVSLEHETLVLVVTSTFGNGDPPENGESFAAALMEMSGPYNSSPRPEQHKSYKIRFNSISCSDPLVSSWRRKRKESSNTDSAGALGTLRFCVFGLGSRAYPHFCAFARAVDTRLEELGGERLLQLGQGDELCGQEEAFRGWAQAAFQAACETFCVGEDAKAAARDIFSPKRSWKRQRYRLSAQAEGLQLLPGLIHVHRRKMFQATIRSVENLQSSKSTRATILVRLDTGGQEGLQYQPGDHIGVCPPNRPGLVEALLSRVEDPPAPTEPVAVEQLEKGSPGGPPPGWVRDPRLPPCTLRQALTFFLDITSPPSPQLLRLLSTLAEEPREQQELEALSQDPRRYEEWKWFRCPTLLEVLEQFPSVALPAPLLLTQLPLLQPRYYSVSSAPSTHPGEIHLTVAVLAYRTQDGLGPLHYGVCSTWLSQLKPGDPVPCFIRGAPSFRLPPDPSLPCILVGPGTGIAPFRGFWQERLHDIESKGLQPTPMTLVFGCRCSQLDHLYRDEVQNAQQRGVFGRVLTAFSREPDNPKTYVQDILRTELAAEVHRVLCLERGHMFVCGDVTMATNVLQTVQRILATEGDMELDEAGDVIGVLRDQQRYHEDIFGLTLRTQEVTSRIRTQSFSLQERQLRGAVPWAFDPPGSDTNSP

[7] = target: Recombinant human inducible NOS (iNOS) (Homo sapiens, UniProt P35228); assay: Human iNOS enzyme assay, radiometric; type: biochemical; settings: read-out: hiNOS IC50
Sequence of Recombinant human inducible NOS (iNOS) (P35228 whole entry): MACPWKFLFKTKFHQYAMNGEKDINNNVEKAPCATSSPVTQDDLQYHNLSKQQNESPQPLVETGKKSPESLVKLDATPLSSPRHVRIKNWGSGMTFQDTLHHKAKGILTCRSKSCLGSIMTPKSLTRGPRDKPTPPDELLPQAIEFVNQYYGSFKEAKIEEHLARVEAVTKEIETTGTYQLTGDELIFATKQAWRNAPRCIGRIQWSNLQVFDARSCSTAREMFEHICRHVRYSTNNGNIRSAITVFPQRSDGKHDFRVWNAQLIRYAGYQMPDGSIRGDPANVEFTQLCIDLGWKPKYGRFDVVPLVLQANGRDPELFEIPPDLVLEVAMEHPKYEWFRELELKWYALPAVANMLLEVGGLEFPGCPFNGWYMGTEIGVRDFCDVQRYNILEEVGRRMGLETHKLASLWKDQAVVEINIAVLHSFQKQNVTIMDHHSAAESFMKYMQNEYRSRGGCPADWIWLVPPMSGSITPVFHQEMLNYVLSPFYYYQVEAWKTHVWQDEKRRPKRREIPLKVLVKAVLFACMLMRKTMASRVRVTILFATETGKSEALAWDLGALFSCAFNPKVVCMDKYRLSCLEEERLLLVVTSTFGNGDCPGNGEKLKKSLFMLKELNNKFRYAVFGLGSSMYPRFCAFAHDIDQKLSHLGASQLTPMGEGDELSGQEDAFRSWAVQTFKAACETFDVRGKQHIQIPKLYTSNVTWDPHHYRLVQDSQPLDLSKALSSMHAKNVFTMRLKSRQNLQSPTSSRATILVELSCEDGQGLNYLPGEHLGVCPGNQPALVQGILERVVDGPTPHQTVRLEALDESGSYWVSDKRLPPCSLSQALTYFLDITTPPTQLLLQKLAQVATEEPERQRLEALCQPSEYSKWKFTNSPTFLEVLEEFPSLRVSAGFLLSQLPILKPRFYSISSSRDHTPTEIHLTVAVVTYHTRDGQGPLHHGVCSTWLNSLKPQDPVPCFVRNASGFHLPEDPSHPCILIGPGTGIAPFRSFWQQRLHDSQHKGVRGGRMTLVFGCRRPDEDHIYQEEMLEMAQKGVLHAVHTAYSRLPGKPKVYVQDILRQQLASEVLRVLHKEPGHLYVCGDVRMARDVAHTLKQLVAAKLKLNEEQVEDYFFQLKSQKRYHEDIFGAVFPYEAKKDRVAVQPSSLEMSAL

nNOS (Rat) = nNOS (Rat) (Rattus norvegicus, UniProt P29476); assay: nNOS (Rat) enzyme assay; type: biochemical; settings: rodent enzymes; values in parentheses
Method: nNOS (Rat), eNOS (Rat) and iNOS (Mouse) Enzyme Assay Recombinant rat or mouse NO synthases (iNOS, eNOS, nNOS) were expressed in Sf9 cells (Sigma), 36 mg prot/ml (Bradford). […] Inhibition of NOS was determined by measuring the formation of L-[3H] citrulline from L-[3H] arginine. […] Stop buffer:100 mM Hepes, pH 5.5, 3 mM EDTA, 3 mM EGTA.

eNOS (Rat) = eNOS (Rat) (Rattus norvegicus, UniProt Q62600); assay: eNOS (Rat) enzyme assay; type: biochemical; settings: values in parentheses, read-out: eNOS IC50 (rodent data in parentheses)
Sequence of eNOS (Rat) (Q62600 2-1202): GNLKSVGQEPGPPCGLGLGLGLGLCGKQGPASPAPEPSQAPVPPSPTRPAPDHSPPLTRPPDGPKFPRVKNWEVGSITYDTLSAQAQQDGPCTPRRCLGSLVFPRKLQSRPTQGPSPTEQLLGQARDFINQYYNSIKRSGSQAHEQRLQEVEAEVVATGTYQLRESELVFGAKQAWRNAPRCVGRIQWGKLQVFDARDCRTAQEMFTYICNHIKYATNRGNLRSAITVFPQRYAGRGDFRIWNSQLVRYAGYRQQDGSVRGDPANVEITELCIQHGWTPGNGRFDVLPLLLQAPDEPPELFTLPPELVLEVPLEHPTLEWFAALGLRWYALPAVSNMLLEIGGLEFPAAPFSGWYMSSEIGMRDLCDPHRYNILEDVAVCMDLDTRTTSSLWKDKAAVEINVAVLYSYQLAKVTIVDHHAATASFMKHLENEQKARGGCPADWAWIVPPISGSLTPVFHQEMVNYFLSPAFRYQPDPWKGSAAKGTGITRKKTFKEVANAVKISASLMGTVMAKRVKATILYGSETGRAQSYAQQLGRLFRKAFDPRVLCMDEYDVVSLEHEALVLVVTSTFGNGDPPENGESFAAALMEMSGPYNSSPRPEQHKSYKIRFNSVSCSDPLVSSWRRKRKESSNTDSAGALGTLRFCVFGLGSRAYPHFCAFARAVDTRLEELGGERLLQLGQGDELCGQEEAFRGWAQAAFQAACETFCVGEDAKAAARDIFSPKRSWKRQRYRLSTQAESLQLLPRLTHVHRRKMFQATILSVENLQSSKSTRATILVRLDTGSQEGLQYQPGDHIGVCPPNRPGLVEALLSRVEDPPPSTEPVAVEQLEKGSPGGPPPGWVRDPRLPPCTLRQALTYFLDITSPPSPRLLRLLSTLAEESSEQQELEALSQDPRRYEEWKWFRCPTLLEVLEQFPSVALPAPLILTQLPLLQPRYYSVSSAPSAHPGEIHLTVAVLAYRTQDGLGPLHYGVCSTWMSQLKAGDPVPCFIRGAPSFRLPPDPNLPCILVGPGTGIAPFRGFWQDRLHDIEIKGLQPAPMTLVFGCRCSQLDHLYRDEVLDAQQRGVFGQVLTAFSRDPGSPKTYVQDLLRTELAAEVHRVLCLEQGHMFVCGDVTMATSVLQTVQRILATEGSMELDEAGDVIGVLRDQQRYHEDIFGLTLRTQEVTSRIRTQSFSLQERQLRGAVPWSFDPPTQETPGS

[8] = tested on: Rats with L5/L6 spinal nerve ligation; assay: Chung Spinal Nerve Ligation model, thermal hyperalgesia; type: in vivo, rat; settings: standard dosings 3, 10, and 30 mg/kg injected IP
[9] = tested on: Rats with L5/L6 spinal nerve ligation; assay: Chung Spinal Nerve Ligation model, tactile allodynia; type: in vivo, rat; settings: standard dosings 3, 10, and 30 mg/kg injected IP
[10] = tested on: patients with cardiogenic shock; settings: randomized trial of 30 patients; reduced from 67%; cited from earlier work

Q: For C/C1=C2/[N-][C@H]([C@H](CC(N)=O)[C@@]2(C)CCC(=O)NC[C@@H](C)OP(=O)([O-])O[C@H]2[C@@H](O)[C@@H](n3cnc4cc(C)c(C)cc43)O[C@@H]2CO)[C@]2(C)N=C(/C(C)=C3N=C(/C=C4N=C1[C@@H](CCC(N)=O)C\4(C)C)[C@@H](CCC(N)=O)[C@]\3(C)CC(N)=O)[C@@H](CCC(N)=O)[C@]2(C)CC(N)=O.[Co+3].[OH-] [hydroxycobalamin], which “patients with a reduction in the frequency of migraine attack of 50%” value (migraine patients [1]) is on record?
A: 53%

Q: Which results are given for CNC(=N)NCCC[C@H](N)C(=O)O [L-NMMA, N^G-monomethyl-L-arginine]?
A: hindpaw allodynia after inflammatory soup (IS) ([2]; 10 mg/kg i.v 15 minutes prior to IS): reverses the development of hindpaw allodynia; response rate (migraine patients [3]): 67%; survival rate [4]: 72%

Q: With CN1CCCC1CCN1CCCc2cc(NC(=N)c3cccs3)ccc21 (single isomer, unassigned) [Example 23, N-(1-(2-(1-Methylpyrrolidin-2-yl)ethyl)-1,2,3,4-tetrahydroquinolin-6-yl)thiophene-2-carboximidamide] as the compound, how does the “Selectivity eNOS/nNOS” value ([5]; human enzymes, ratio of eNOS IC50 to nNOS IC50) read?
A: 157

Q: What about the IC50 ([5]; human recombinant nNOS, values without parentheses, read-out: hnNOS IC50) of the same compound?
A: 0.26 µM

Q: And the IC50 [6]?
A: 41 µM

Q: And the IC50 [7]?
A: > 100 µM

Q: What about the “Selectivity eNOS/nNOS (rodent data in parentheses)” value (nNOS (Rat)) of the same compound?
A: (>434)

Q: What about the IC50 (eNOS (Rat)) of the same compound?
A: > 100 µM

Q: What about the “antihyperalgesic effect in the Chung model” value [8] of the same compound?
A: clear antihyperalgesic effect

Q: And the “antiallodynic effect in the Chung model” value [9]?
A: antiallodynic effect

Q: And the “hindpaw allodynia after inflammatory soup (IS)” value ([2]; 30 mg/kg p.o. 15 minutes prior to IS)?
A: reverses the development of hindpaw allodynia

Q: For COC(=O)[C@@H](N)CCCNC(=N)N[N+](=O)[O-] [L-NAME, N^G-Nitro-L-arginine methyl ester], which patient mortality [10] is on record?
A: 27%
